Measured values published in patent publication US20190167579A1, “ITRACONAZOLE DRY POWDERS” (priority 2017, published 2019).

Test system: Calu-3 cell line
Experiment: cNGI integrated dissolution and permeability on Calu-3 monolayers
Assay type: in vitro ADME
Protocol: A bio-relevant dissolution testing system was used based on mimicking the air-liquid interface at the respiratory epithelium interface using a cell-based in vitro method. A modified next generation impactor that incorporated cell culture plates onto collection stages (cNGI) was used to uniformly deposit materials onto the cell cultures. Dissolution and permeation of the drug through the epithelial cell monolayer was measured.
Epithelial cell monolayers grown at the air-liquid interface in Snapwell™ (Corning Costar, Massachusetts, USA) permeable insert were integrated into the cNGI. […] The transepithelial electrical resistance (TEER) was measured using an EVOM2 chopstick electrode connected to an EVOM2 Epithelial Voltohmmeter (World Precision Instruments, Hitchin, United Kingdom) and monolayers with a TEER above 450 Ω·cm^2 were deemed confluent. […]
Post-dosing of the dose on to the Snapwells from stage 4, the Snapwells were transferred to 6-well plates, which contained 2mL of PBS pH 7.4±2.0% SDS maintained at 37° C. Basolateral samples were taken at different time points and drug content was measured on an Agilent (Santa Clara, Calif., USA) 1260 Infinity series HPLC. Total dose delivered to the cells was measured from the total amount of drug dissolved over the time-course and from lysing cells post experimentation. […]

Dissolution and permeability kinetics, comparison: slower
Structure (SMILES): CCC(C)n1ncn(-c2ccc(N3CCN(c4ccc(OCC5COC(Cn6cncn6)(c6ccc(Cl)cc6Cl)O5)cc4)CC3)cc2)c1=O (stereo not shown) [Pure ITZ, Itraconazole]
